Data published in patent US5358946A, “Heterocycle-substituted amides, carbamates and ureas as agents for the treatment of atherosclerosis” (The Du Pont Merck Pharmaceutical Company, priority 1992, dated 1994).

What follows are molecules tested against T1, acyl-CoA: cholesterol acyltransferase (ACAT) (Rattus norvegicus, UniProt Q7TQM4) (assay: Inhibition of Acyl-CoA: Cholesterol Acyltransferase (ACAT) in hepatic microsomes (in vitro hepatic ACAT activity)). Conditions: 14C-oleoyl-CoA, 15 min preincubation at 37° C., pH 7.4, read-out: Inhibition of Cholesterol Esterification (IC50).
T1 construct: Microsomes were obtained by differential centrifugation; from tissue; host or cells: liver microsomes of male Sprague Dawley rats
T1 sequence (Q7TQM4 1-524): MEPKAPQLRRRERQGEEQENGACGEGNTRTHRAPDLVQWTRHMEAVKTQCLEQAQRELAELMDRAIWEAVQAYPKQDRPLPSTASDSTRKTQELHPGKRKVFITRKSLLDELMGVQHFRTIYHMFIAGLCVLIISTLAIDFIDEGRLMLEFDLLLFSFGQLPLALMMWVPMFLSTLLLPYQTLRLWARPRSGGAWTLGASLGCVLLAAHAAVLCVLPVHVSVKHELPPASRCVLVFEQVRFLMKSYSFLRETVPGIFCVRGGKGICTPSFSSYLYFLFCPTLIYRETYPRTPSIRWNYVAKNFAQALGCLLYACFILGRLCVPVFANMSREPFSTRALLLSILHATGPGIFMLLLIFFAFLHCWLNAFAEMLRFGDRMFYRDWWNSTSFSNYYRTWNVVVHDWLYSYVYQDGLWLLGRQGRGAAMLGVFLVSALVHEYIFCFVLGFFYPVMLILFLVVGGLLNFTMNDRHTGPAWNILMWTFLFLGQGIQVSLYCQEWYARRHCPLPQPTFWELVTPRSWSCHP
Format: biochemical, rat (male Sprague Dawley)
Procedure: The ability of the compounds to inhibit ACAT, the enzyme responsible for the intracellular synthesis of cholesteryl esters, was tested as follows. Male Sprague Dawley rats weighing 150-300 g, were fed rat chow ad libitum. The animals were fasted for twenty-four hours prior to being sacrificed by decapitation. The livers were perfused in situ with 50 ml of cold 0.25M sucrose, excised, and homogenized in three volumes of 0.1M phosphate buffer, pH 7.4, that contained 0.5 mM EDTA (ethylenediaminetetraacetic acid), 1.0 mM glutathione, 0.25M sucrose and […]. Microsomes were obtained by differential centrifugation; the supernatant from an initial spin at 15,000×g for 15 minutes was centrifuged at 105,000×g for 1 hour to pellet the microsomes. The microsomes were suspended in homogenization buffer, reisolated by centrifugation, and stored at -70° C. Microsomes were used within one month of preparation.
The control assay in a final volume of 200 μl consisted of 200 μg of microsomal protein, 75μ<^14 C-oleoyl-CoA (10,000 dpm/nmol) in 0.1M phosphate, pH 7.4, that contained 1 mM glutathione. Compounds were added in 5 μl of DMSO (dimethyl sulfoxide) and additional controls were run with DMSO only. All components, except the oleoyl-CoA, were preincubated for 15 min. at 37° C. prior to the initiation of the reaction by the addition of oleoyl-CoA. The assay was terminated after 10 min. by the addition of 4 ml of chloroform:methanol (2:1, v/v). 20,000 dpm of 3H-choledsteryl oleate and 10 μg of unlabeled cholesteryl oleate and oleic acid were added as an internal standard and carriers, respectively. After allowing 10 min. for lipid extraction, 0.8 ml of deionized water was added to separte the solution into two phases. The lower chloroform phase was collected, dried under nitrogen and resuspended in 2 ml of hexane:diethyl ether (97:3 v/v). The lipids were then loaded onto BAKERSBOND spe* silica gel columns. Extracts were collected in scintillation vials and counted for radioactivity. The specific activity of ACAT in the control incubation averaged 260 pmol/min/mg microsomal protein.

IC50	Compound
1500 nM	CCCCN(C)CCN(CCOCCSc1nc(-c2ccc(OC)cc2)c(-c2ccc(OC)cc2)[nH]1)C(=O)Nc1ccc(F)cc1F [Example 32, N-[2-(2-(4,5-bis(4-methoxyphenyl)-1H-imidazol-2-ylthio)ethoxy)ethyl]-N-[2-(N-butyl-N-methylamino)ethyl]-N'-(2,4-difluorophenyl) urea]
66 nM	O=C(Nc1ccc(F)cc1F)N(CCCCCSc1nc(-c2ccccc2)c(-c2ccccc2)[nH]1)CCN1CCOCC1 [Example 161, N'-(2,4-difluorophenyl)-N-[5-(4,5-diphenyl-1H-imidazol-2-ylthio)pentyl]-N-[2-(4-morpholinyl)ethyl]-urea]
480 nM	COc1ccc(-c2nc(SCCCCCN(CCOCCO)C(=O)NC(C)C)[nH]c2-c2ccc(OC)cc2)cc1 [Example 284]
4100 nM	CCCN(CCOC(=O)CSc1nc(-c2ccccc2)c(-c2ccccc2)[nH]1)C(=O)Nc1ccc(F)cc1F [Example 421]

These molecules were tested against T2, ACAT (Mus musculus, UniProt Q61263) (assay: Inhibition of cholesterol esterification in the murine macrophage-like cell line J774.A1). Conditions: J774.A1 cells, ac-LDL loaded, 14C-oleic acid pulse.
T2 construct: endogenous in cells; host or cells: J774.A1 (murine macrophage-like)
T2 sequence (Q61263 1-540): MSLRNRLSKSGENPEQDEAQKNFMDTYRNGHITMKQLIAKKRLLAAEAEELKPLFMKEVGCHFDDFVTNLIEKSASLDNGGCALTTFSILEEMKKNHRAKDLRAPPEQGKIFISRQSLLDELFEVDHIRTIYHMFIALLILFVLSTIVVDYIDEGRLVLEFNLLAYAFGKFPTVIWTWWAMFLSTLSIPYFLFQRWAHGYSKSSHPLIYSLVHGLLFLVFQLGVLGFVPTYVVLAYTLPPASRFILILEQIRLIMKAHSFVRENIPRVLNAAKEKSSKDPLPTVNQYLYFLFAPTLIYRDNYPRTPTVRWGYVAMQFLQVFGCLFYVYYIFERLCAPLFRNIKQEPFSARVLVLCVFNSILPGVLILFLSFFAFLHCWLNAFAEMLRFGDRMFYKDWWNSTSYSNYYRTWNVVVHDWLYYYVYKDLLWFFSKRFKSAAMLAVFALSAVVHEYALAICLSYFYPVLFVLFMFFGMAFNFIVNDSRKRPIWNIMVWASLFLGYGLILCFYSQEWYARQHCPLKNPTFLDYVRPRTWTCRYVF
Format: cell-based
Procedure: The esterification of cholesterol was determined in the murine macrophage-like cell line J774.A1. Cells were seeded in 35 mm wells at a density of 300,000 cells per well in 2 mls of Dulbecco's Eagle Medium (DMEM) supplemented with 10% fetal bovine serum (FBS). Cells were incubated at 37° C. in an atmosphere of 5% CO2 and 93% humidity. After […] the media was changed to 0.68 mls 10% FBS-DMEM containing 34 μg of acetylated human low density lipoprotein (ac-LDL) to increase the intracellular concentration of cholesterol and promote esterification. At 41 hours, various inhibitors were added to the cells in DMSO (10 μl/ml maximum). At 43 hours, the cells were pulsed with 0.1 mM ^14 C-oleic acid (10,000 dpm/nmol) complexed with BSA (bovine serum albumin) to follow cholesterol ester formation. The experiment was terminated at 45 hours by washing the monolayers 3 times with 3 ml of Tris-buffered saline at 4° C. The lipids were extracted by incubating the monolayers with 1.5 ml of hexane: isopropanol (3:2, v/v) for 30 min. under gentle agitation. During this period, 10,000 dpm ^3 H-cholesterol oleate and 10 μg of unlabeled cholesteryl oleate, oleic acid, triolein and cholesterol were added as an […] standard and carriers. The organic solvent was removed and the cells were washed with an additional 1.0 ml of hexane: isopropanol which was combined with the original extract. The cells were allowed to dry overnight, digested with 2.0 ml of 0.2N sodium hydroxide for 1 hour and an aliquot of the solubilized protein used for protein determination using the Lowry method. […] Extracts were collected in scintillation vials to determine the amount of radioactivity. The conversion of oleic acid to cholesteryl ester in the control averaged 0.54 mmol/hour/mg protein and was increased upon the addition of ac-LDL to about 10.689±0.69 mmol/hour/mg protein.

IC50	Compound
580 nM	CCN(CC)CCN(CCCCCSc1nc(-c2ccccc2)c(-c2ccccc2)[nH]1)C(=O)NC(C)C [Example 1, N-[2-(diethylamino)ethyl]-N-[5-(4,5-diphenyl-1H-imidazol-2-ylthio)pentyl]-N'-(1-methylethyl)-urea]
2180 nM	CCN(CC)CCN(CCCCCSc1nc(-c2ccccc2)c(-c2ccccc2)[nH]1)C(=O)Nc1ccc(F)cc1F [Example 2]
630 nM	CCCCN(C)CCN(CCOCCSc1nc(-c2ccc(OC)cc2)c(-c2ccc(OC)cc2)[nH]1)C(=O)Nc1ccc(F)cc1F [Example 32, N-[2-(2-(4,5-bis(4-methoxyphenyl)-1H-imidazol-2-ylthio)ethoxy)ethyl]-N-[2-(N-butyl-N-methylamino)ethyl]-N'-(2,4-difluorophenyl) urea]
1470 nM	CCCCCCCN(CCN(C)CCSc1nc(-c2ccccc2)c(-c2ccccc2)[nH]1)C(=O)Nc1ccc(F)cc1F [Example 101, N'-(2,4-difluorophenyl)-N-[2-[2-(4,5-diphenyl-1H-imidazol-2-ylthio)ethyl]-N-[methylamino]ethyl]-N-heptyl-urea]
2400 nM	CCCCCCCN(CCN(C)CCSc1nc(-c2ccccc2)c(-c2ccccc2)[nH]1)C(=O)NC(C)C [Example 102]
880 nM	O=C(Nc1ccc(F)cc1F)N(CCCCCSc1nc(-c2ccccc2)c(-c2ccccc2)[nH]1)CCN1CCOCC1 [Example 161, N'-(2,4-difluorophenyl)-N-[5-(4,5-diphenyl-1H-imidazol-2-ylthio)pentyl]-N-[2-(4-morpholinyl)ethyl]-urea]
1340 nM	COc1ccc(-c2nc(SCCCCCN(CCN3CCOCC3)C(=O)Nc3ccc(F)cc3F)[nH]c2-c2ccc(OC)cc2)cc1 [Example 162, N-[5-[4,5-bis(4-methoxyphenyl)-1H-imidazol-2-ylthio]pentyl]-N'-(2,4-difluorophenyl)-N-[2-(1-morpholinyl)ethyl]-urea]
2740 nM	CN(CCSc1nc(-c2ccccc2)c(-c2ccccc2)[nH]1)CCN(CCN1CCOCC1)C(=O)Nc1ccc(F)cc1F [Example 181]
6280 nM	CC(C)NC(=O)N(CCN(C)CCSc1nc(-c2ccccc2)c(-c2ccccc2)[nH]1)CCN1CCOCC1 [Example 183]
6740 nM	O=C(Nc1ccc(F)cc1F)N(CCCCCSc1nc(-c2ccccc2)c(-c2ccccc2)[nH]1)CCOCCO [Example 281]
6840 nM	CC(C)NC(=O)N(CCCCCSc1nc(-c2ccccc2)c(-c2ccccc2)[nH]1)CCOCCO [Example 282, N-[5-(4,5-diphenyl-1H-imidazol-2-ylthio)-pentyl]-N-[2-(2-hydroxyethoxy)-ethyl]-N'-(1-methylethyl)-urea]
840 nM	COc1ccc(-c2nc(SCCCCCN(CCOCCO)C(=O)Nc3ccc(F)cc3F)[nH]c2-c2ccc(OC)cc2)cc1 [Example 283, N-[5-[4,5-bis(4-methoxyphenyl)-1H-imidazol-2-ylthio]pentyl]-N '-(2,4-difluorophenyl)-N-[2-(2-hydroxyethoxy)ethyl]-urea]
2420 nM	COc1ccc(-c2nc(SCCCCCN(CCOCCO)C(=O)NC(C)C)[nH]c2-c2ccc(OC)cc2)cc1 [Example 284]
250 nM	COCCOCCN(CCCCCSc1nc(-c2ccc(OC)cc2)c(-c2ccc(OC)cc2)[nH]1)C(=O)Nc1ccc(F)cc1F [Example 303, N-[5-[4,5-bis(4-methoxyphenyl)-1H-imidazol-2-ylthio]pentyl]-N '-(2,4-difluorophenyl)-N-[2-(2-methoxyethoxy)ethyl]-urea]
360 nM	COCCOCCN(CCCCCSc1nc(-c2ccc(OC)cc2)c(-c2ccc(OC)cc2)[nH]1)C(=O)NC(C)C [Example 304, N-[5-[4,5-bis(4-methoxyphenyl)-1H-imidazol-2-ylthio]-pentyl]-N-[2-(2-methoxyethoxy)-ethyl]-N'-(1-methylethyl)-urea]
4010 nM	CCOCCOCCN(CCCCCSc1nc(-c2ccccc2)c(-c2ccccc2)[nH]1)C(=O)Nc1ccc(F)cc1F [Example 321]
3020 nM	CCOCCOCCN(CCCCCSc1nc(-c2ccccc2)c(-c2ccccc2)[nH]1)C(=O)NC(C)C [Example 322]
41 nM	CCOCCOCCN(CCCCCSc1nc(-c2ccc(SC)cc2)c(-c2ccc(SC)cc2)[nH]1)C(=O)NC(C)C [Example 325]
3980 nM	CCCCCCCN(CCOCCSc1nc(-c2ccccc2)c(-c2ccccc2)[nH]1)C(=O)Nc1ccc(F)cc1F [Example 361]
990 nM	CCCCCCCN(CCOCCSc1nc(-c2ccccc2)c(-c2ccccc2)[nH]1)C(=O)NC(C)C [Example 362]
500 nM	CCCCCCCN(CCOCCSc1nc(-c2ccc(OC)cc2)c(-c2ccc(OC)cc2)[nH]1)C(=O)Nc1ccc(F)cc1F [Example 364]
3680 nM	CCCN(CCOC(=O)CSc1nc(-c2ccccc2)c(-c2ccccc2)[nH]1)C(=O)Nc1ccc(F)cc1F [Example 421]

Compound	IC50
CCCCOCCN(CCCCCSc1nc(-c2ccccc2)c(-c2ccccc2)[nH]1)C(=O)Nc1ccc(F)cc1F [Example 261, N-(2-butoxyethyl)-N'-(2,4-difluorophenyl)-N-[5-(4,5-diphenyl-1H-imidazol-2-ylthio)pentyl]-urea]	1750 nM
CCCCOCCN(CCCCCSc1nc(-c2ccccc2)c(-c2ccccc2)[nH]1)C(=O)NC(C)C [Example 262, N-(2-butoxyethyl)-N-[5-(4,5-diphenyl-1H-imidazol-2-ylthio)pentyl]-N'-(1-methylethyl)-urea]	840 nM
